Drawing on patent publication EP4596574A1, “GLP-1/GCG/GIP TRIPLE-RECEPTOR AGONIST AND USE THEREOF” (Sunshine Lake Pharma Co., Ltd., priority 2022, dated 2024), this text covers EC50 for five compounds.

Molecules are shown by their SMILES. Starred links: 1 amine or outer side, 2 acyl side, 3 side chain; linkers in the order of their positions; H or OH if unused. Non-standard residues stand in square brackets, D forms with d. Residues, ends and D or L forms follow the SMILES beside them. Groups on a side chain read outwards from the residue. *: point of attachment. C18 diacid = O=C(O)CCCCCCCCCCCCCCCCC(=O)*; αMePhe(2-F) = C[C@](N)(Cc1ccccc1F)C(=O)O; γGlu = O=C(O)[C@H](CCC(=O)[*:2])N[*:1]; AEEA = NCCOCCOCC(=O)O; Aib = CC(C)(N)C(=O)O

Holding throughout (format): cell-based
For one assay, the target named is T1, GLP-1R (Homo sapiens, UniProt P43220).
T1 construct: expressed in transfected cells; host or cells: HEK293 (HEK293-GLP-1R)
T1 sequence (P43220 24-463, species assumed): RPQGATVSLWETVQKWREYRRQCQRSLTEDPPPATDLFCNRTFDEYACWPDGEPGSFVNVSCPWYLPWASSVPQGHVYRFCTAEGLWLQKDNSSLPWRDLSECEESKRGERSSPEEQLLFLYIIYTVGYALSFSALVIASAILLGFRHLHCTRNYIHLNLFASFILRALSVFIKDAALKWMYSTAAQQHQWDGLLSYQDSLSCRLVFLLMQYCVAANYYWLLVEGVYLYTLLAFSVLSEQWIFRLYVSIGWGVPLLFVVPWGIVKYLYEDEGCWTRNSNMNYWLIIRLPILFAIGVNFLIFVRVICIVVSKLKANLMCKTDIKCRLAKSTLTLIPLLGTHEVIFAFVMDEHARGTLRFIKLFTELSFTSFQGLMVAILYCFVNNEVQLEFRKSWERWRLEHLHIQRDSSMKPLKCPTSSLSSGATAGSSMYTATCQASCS
The assay can be described thus: In vitro cell activity, cAMP production in HEK293 cells expressing GLP-1R. The following applies: HEK293-GLP-1R cells, cAMP; read-out: GLP-1R (EC50). An outline of the steps: (§1)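 Cells were plated at 4×10^5 cells/mL, and detection reagents (cAMP-d2, anti-cAMP cryptate, 1:1) were incubated 1 h at room temperature in the dark or overnight at 4 °C.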

A further assay addresses T2, GCGR (Homo sapiens, UniProt P47871).
T2 construct: expressed in transfected cells; host or cells: HEK293 (HEK293-GCGR)
Put plainly: In vitro cell activity, cAMP production in HEK293 cells expressing GCGR. To be noted: HEK293-GCGR cells, cAMP; read-out: GCGR (EC50). An outline of the steps:
as §1

In the next assay the target is T3, GIPR (Homo sapiens, UniProt P48546).
T3 construct: expressed in transfected cells; host or cells: HEK293 (HEK293-GIPR)
T3 sequence (P48546 22-466): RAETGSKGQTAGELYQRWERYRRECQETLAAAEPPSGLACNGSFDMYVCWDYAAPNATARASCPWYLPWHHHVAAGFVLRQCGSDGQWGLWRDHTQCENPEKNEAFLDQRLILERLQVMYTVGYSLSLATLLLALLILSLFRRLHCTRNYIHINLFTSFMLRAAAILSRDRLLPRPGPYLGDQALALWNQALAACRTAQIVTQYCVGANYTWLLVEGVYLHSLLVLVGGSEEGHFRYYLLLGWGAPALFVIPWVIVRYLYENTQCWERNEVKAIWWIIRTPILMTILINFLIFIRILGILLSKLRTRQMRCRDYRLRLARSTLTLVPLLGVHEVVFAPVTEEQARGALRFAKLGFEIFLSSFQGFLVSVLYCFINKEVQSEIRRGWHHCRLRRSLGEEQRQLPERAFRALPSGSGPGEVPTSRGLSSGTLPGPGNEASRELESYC
The assay can be described thus: In vitro cell activity, cAMP production in HEK293 cells expressing GIPR. To be noted: HEK293-GIPR cells, cAMP; read-out: GIPR (EC50). Summed up: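 cAMP accumulation is quantified by homogeneous TR-FRET (cAMP-d2 plus anti-cAMP cryptate) in GIPR-expressing HEK293 cells seeded from a 4×10^5 cells/mL suspension and treated with compound. The signal ratio is plotted against concentration and fitted to a four-parameter curve to give EC50.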

T2 sequence (P47871 26-477, species assumed): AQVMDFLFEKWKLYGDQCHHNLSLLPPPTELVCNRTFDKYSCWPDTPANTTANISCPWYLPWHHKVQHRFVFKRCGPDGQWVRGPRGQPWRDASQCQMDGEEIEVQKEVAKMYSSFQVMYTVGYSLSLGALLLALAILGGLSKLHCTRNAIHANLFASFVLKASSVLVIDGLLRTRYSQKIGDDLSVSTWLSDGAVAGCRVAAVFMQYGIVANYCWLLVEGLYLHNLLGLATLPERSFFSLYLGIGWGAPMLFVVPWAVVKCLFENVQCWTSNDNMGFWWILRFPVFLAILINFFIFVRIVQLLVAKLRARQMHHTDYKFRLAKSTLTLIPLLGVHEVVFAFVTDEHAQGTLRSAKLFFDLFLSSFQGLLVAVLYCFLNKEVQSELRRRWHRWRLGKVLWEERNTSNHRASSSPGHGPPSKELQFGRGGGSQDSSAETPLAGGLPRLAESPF

For the compound `CC[C@H](C)[C@H](NC(=O)[C@H](Cc1ccccc1)NC(=O)[C@H](C)NC(=O)[C@H](CCC(N)=O)NC(=O)[C@H](CCC(N)=O)NC(=O)[C@H](CCCNC(=N)N)NC(=O)[C@@H](NC(=O)[C@H](CCCCN)NC(=O)[C@H](CC(=O)O)NC(=O)[C@H](CCCCNC(=O)COCCOCCNC(=O)CC[C@H](NC(=O)CCCCCCCCCCCCCCCCC(=O)O)C(=O)O)NC(=O)[C@H](CC(C)C)NC(=O)[C@@H](NC(=O)[C@H](CO)NC(=O)[C@H](Cc1ccc(O)cc1)NC(=O)[C@H](CC(=O)O)NC(=O)[C@H](CO)NC(=O)[C@@H](NC(=O)[C@](C)(Cc1ccccc1F)NC(=O)[C@@H](NC(=O)CNC(=O)[C@H](CCC(N)=O)NC(=O)C(C)(C)NC(=O)[C@@H](N)Cc1ccc(O)cc1)[C@@H](C)O)[C@@H](C)O)[C@@H](C)CC)[C@@H](C)CC)C(=O)N[C@@H](CCC(=O)O)C(=O)N[C@@H](Cc1ccc(O)cc1)C(=O)N[C@@H](CC(C)C)C(=O)N[C@@H](CC(C)C)C(=O)N[C@@H](CCC(=O)O)C(=O)NCC(=O)NCC(=O)N1CCC[C@H]1C(=O)N[C@@H](CO)C(=O)N[C@@H](CO)C(=O)NCC(=O)N[C@@H](C)C(=O)N1CCC[C@H]1C(=O)N1CCC[C@H]1C(=O)N1CCC[C@H]1C(=O)N[C@@H](CO)C(N)=O` [HEC-PT143] (H-Y[Aib]QGT[αMePhe(2-F)]TSDYSILK([AEEA-γGlu-C18 diacid])DKIRQQAFIEYLLEGGPSSGAPPPS-NH2), the 50% effective concentration (EC50) on GLP-1R came out at 0.14 nM; at GCGR it was 0.173 nM; on GIPR it was 0.063 nM.

Turning to `CC[C@H](C)[C@H](NC(=O)[C@H](Cc1ccccc1)NC(=O)[C@H](C)NC(=O)C(C)(C)NC(=O)[C@H](CCC(N)=O)NC(=O)[C@H](CCCNC(=N)N)NC(=O)[C@@H](NC(=O)[C@H](CCCCN)NC(=O)[C@H](CC(=O)O)NC(=O)[C@H](CCCCNC(=O)COCCOCCNC(=O)CC[C@H](NC(=O)CCCCCCCCCCCCCCCCC(=O)O)C(=O)O)NC(=O)[C@H](CC(C)C)NC(=O)[C@@H](NC(=O)[C@H](CO)NC(=O)[C@H](Cc1ccc(O)cc1)NC(=O)[C@H](CC(=O)O)NC(=O)[C@H](CO)NC(=O)[C@@H](NC(=O)[C@](C)(Cc1ccccc1F)NC(=O)[C@@H](NC(=O)CNC(=O)[C@H](CCC(N)=O)NC(=O)C(C)(C)NC(=O)[C@@H](N)Cc1ccc(O)cc1)[C@@H](C)O)[C@@H](C)O)[C@@H](C)CC)[C@@H](C)CC)C(=O)N[C@@H](CCC(=O)O)C(=O)N[C@@H](Cc1ccc(O)cc1)C(=O)N[C@@H](CC(C)C)C(=O)N[C@@H](CC(C)C)C(=O)N[C@@H](CCC(=O)O)C(=O)NCC(=O)NCC(=O)N1CCC[C@H]1C(=O)N[C@@H](CO)C(=O)N[C@@H](CO)C(=O)NCC(=O)N[C@@H](C)C(=O)N1CCC[C@H]1C(=O)N1CCC[C@H]1C(=O)N1CCC[C@H]1C(=O)N[C@@H](CO)C(N)=O` [HEC-PT144], the EC50 at GLP-1R came to 0.173 nM; on GCGR, 0.0366 nM; on GIPR, 0.0221 nM.

Consider `CC[C@H](C)[C@H](NC(=O)[C@H](Cc1ccccc1)NC(=O)[C@H](C)NC(=O)C(C)(C)NC(=O)[C@H](CCC(N)=O)NC(=O)[C@H](CCCNC(=N)N)NC(=O)[C@@H](NC(=O)[C@H](CCCCN)NC(=O)[C@H](CC(=O)O)NC(=O)[C@H](CCCCNC(=O)COCCOCCNC(=O)CC[C@H](NC(=O)CCCCCCCCCCCCCCCCC(=O)O)C(=O)O)NC(=O)[C@H](CC(C)C)NC(=O)[C@@H](NC(=O)[C@H](CO)NC(=O)[C@H](Cc1ccc(O)cc1)NC(=O)[C@H](CC(=O)O)NC(=O)[C@H](CO)NC(=O)[C@@H](NC(=O)[C@](C)(Cc1ccccc1F)NC(=O)[C@@H](NC(=O)CNC(=O)[C@H](CCC(N)=O)NC(=O)C(C)(C)NC(=O)[C@@H](N)Cc1ccc(O)cc1)[C@@H](C)O)[C@@H](C)O)[C@@H](C)CC)[C@@H](C)CC)C(=O)N[C@@H](CCC(=O)O)C(=O)N[C@@H](Cc1ccc(O)cc1)C(=O)N[C@@H](CC(C)C)C(=O)N[C@@H](CC(C)C)C(=O)N[C@@H](C)C(=O)NCC(=O)NCC(=O)N1CCC[C@H]1C(=O)N[C@@H](CO)C(=O)N[C@@H](CO)C(=O)NCC(=O)N[C@@H](C)C(=O)N1CCC[C@H]1C(=O)N1CCC[C@H]1C(=O)N1CCC[C@H]1C(=O)N[C@@H](CO)C(N)=O` [HEC-PT145] (H-Y[Aib]QGT[αMePhe(2-F)]TSDYSILK([AEEA-γGlu-C18 diacid])DKIRQ[Aib]AFIEYLLAGGPSSGAPPPS-NH2), for which the concentration for a half-maximal effect (EC50) is 0.126 nM on GLP-1R, 0.066 nM at GCGR and 0.0316 nM at GIPR.

As for `CC[C@H](C)[C@H](NC(=O)[C@H](Cc1ccccc1)NC(=O)[C@H](C)NC(=O)[C@H](CCC(N)=O)NC(=O)[C@H](CCC(N)=O)NC(=O)[C@H](CCCNC(=N)N)NC(=O)[C@@H](NC(=O)[C@H](CCCNC(=N)N)NC(=O)[C@H](CC(=O)O)NC(=O)[C@H](CCCCNC(=O)COCCOCCNC(=O)CC[C@H](NC(=O)CCCCCCCCCCCCCCCCC(=O)O)C(=O)O)NC(=O)[C@H](CC(C)C)NC(=O)[C@@H](NC(=O)[C@H](CO)NC(=O)[C@H](Cc1ccc(O)cc1)NC(=O)[C@H](CC(=O)O)NC(=O)[C@H](CO)NC(=O)[C@@H](NC(=O)[C@](C)(Cc1ccccc1F)NC(=O)[C@@H](NC(=O)CNC(=O)[C@H](CCC(N)=O)NC(=O)C(C)(C)NC(=O)[C@@H](N)Cc1ccc(O)cc1)[C@@H](C)O)[C@@H](C)O)[C@@H](C)CC)[C@@H](C)CC)C(=O)N[C@@H](CCC(=O)O)C(=O)N[C@@H](Cc1ccc(O)cc1)C(=O)N[C@@H](CC(C)C)C(=O)N[C@@H](CC(C)C)C(=O)N[C@@H](CCC(=O)O)C(=O)NCC(=O)NCC(=O)N1CCC[C@H]1C(=O)N[C@@H](CO)C(=O)N[C@@H](CO)C(=O)NCC(=O)N[C@@H](C)C(=O)N1CCC[C@H]1C(=O)N1CCC[C@H]1C(=O)N1CCC[C@H]1C(=O)N[C@@H](CO)C(=O)O` [HEC-PT146] (H-Y[Aib]QGT[αMePhe(2-F)]TSDYSILK([AEEA-γGlu-C18 diacid])DRIRQQAFIEYLLEGGPSSGAPPPS-OH), the EC50 on GLP-1R amounted to 0.365 nM; on GCGR, 0.121 nM; at GIPR it was 0.105 nM.

As for `CC[C@H](C)[C@H](NC(=O)[C@H](Cc1ccccc1)NC(=O)[C@H](C)NC(=O)[C@H](CCC(N)=O)NC(=O)[C@H](CCC(N)=O)NC(=O)[C@H](CCCNC(=N)N)NC(=O)[C@@H](NC(=O)[C@H](CCCNC(=N)N)NC(=O)[C@H](CC(=O)O)NC(=O)[C@H](CCCCNC(=O)COCCOCCNC(=O)CC[C@H](NC(=O)CCCCCCCCCCCCCCCCC(=O)O)C(=O)O)NC(=O)[C@H](CC(C)C)NC(=O)[C@@H](NC(=O)[C@H](CO)NC(=O)[C@H](Cc1ccc(O)cc1)NC(=O)[C@H](CC(=O)O)NC(=O)[C@H](CO)NC(=O)[C@@H](NC(=O)[C@](C)(Cc1ccccc1F)NC(=O)[C@@H](NC(=O)CNC(=O)[C@H](CCC(N)=O)NC(=O)C(C)(C)NC(=O)[C@@H](N)Cc1ccc(O)cc1)[C@@H](C)O)[C@@H](C)O)[C@@H](C)CC)[C@@H](C)CC)C(=O)N[C@@H](CCC(=O)O)C(=O)N[C@@H](Cc1ccc(O)cc1)C(=O)N[C@@H](CC(C)C)C(=O)N[C@@H](CC(C)C)C(=O)N[C@@H](C)C(=O)NCC(=O)NCC(=O)N1CCC[C@H]1C(=O)N[C@@H](CO)C(=O)N[C@@H](CO)C(=O)NCC(=O)N[C@@H](C)C(=O)N1CCC[C@H]1C(=O)N1CCC[C@H]1C(=O)N1CCC[C@H]1C(=O)N[C@@H](CO)C(=O)O` [HEC-PT147] (H-Y[Aib]QGT[αMePhe(2-F)]TSDYSILK([AEEA-γGlu-C18 diacid])DRIRQQAFIEYLLAGGPSSGAPPPS-OH), the EC50 at GLP-1R came out at 0.174 nM; at GCGR, 0.17 nM; on GIPR, 0.0861 nM.
